Assay results from the NIST ThermoML archive (doi:10.1016/j.jct.2016.04.009).

Key:
[1] = DSC
[2] = Molar enthalpy of transition or fusion; settings: DSC
[3] = molar heat capacity at constant pressure; settings: 101.33 kPa

C[n+]1ccn(Cc2ccccc2)c1.F[B-](F)(F)F [1-benzyl-3-methylimidazolium tetrafluoroborate]
Settings | Molar enthalpy of transition or fusion, [2] [kcal/mol] | Triple point temperature, [1] [K]
Crystal | 4.57 | 346.2
Metastable crystal | 3.97 | 336.5

Settings | Glass transition temperature [°C]
[1] | -37.8

[3]
Settings | molar heat capacity at constant pressure [J/K/mol]
261.7 K, Crystal, Small sample (50 mg) DSC | 292.62
265 K, Crystal, Small sample (50 mg) DSC | 295.4
270 K, Crystal, Small sample (50 mg) DSC | 299.6
275 K, Crystal, Small sample (50 mg) DSC | 304.74
275.65 K, Metastable crystal, Small sample (50 mg) DSC | 283.68
280 K, Crystal, Small sample (50 mg) DSC | 309.29
280 K, Metastable crystal, Small sample (50 mg) DSC | 287.35
285 K, Crystal, Small sample (50 mg) DSC | 313.98
285 K, Metastable crystal, Small sample (50 mg) DSC | 292.48
290 K, Crystal, Small sample (50 mg) DSC | 319.04
290 K, Metastable crystal, Small sample (50 mg) DSC | 298.09
295 K, Crystal, Small sample (50 mg) DSC | 324.16
295 K, Metastable crystal, Small sample (50 mg) DSC | 303.57
298.15 K, Crystal, Drop calorimetry | 325.85
298.15 K, Metastable crystal, Drop calorimetry | 304.61
300 K, Crystal, Small sample (50 mg) DSC | 329.01
300 K, Metastable crystal, Small sample (50 mg) DSC | 307.82
305 K, Crystal, Small sample (50 mg) DSC | 333.82
305 K, Metastable crystal, Small sample (50 mg) DSC | 312.26
310 K, Crystal, Small sample (50 mg) DSC | 338.5
310 K, Metastable crystal, Small sample (50 mg) DSC | 316.56
315 K, Crystal, Small sample (50 mg) DSC | 343.23
315 K, Metastable crystal, Small sample (50 mg) DSC | 320.92
318.98 K, Metastable crystal, Small sample (50 mg) DSC | 324.78
320 K, Crystal, Small sample (50 mg) DSC | 348.35
325 K, Crystal, Small sample (50 mg) DSC | 353.67
328.42 K, Crystal, Small sample (50 mg) DSC | 356.83
345.5 K, Small sample (50 mg) DSC, Liquid | 417.35
350 K, Small sample (50 mg) DSC, Liquid | 420.2
355 K, Small sample (50 mg) DSC, Liquid | 423.44
357.55 K, Small sample (50 mg) DSC, Liquid | 424.91

C[n+]1ccn(Cc2ccccc2)c1.O=S(=O)([N-]S(=O)(=O)C(F)(F)F)C(F)(F)F
Settings | Glass transition temperature [°C]
[1] | -56.4

[3], Liquid
Settings | molar heat capacity at constant pressure [J/K/mol]
258.09 K, Small sample (50 mg) DSC | 588.22
263.2 K, Small sample (50 mg) DSC | 589.8
268.3 K, Small sample (50 mg) DSC | 592.39
273.38 K, Small sample (50 mg) DSC | 596.83
278.51 K, Small sample (50 mg) DSC | 597.13
283.61 K, Small sample (50 mg) DSC | 599.43
288.72 K, Small sample (50 mg) DSC | 601.59
293.82 K, Small sample (50 mg) DSC | 603.91
298.15 K, Drop calorimetry | 598.96
298.93 K, Small sample (50 mg) DSC | 606.63
304.03 K, Small sample (50 mg) DSC | 609.41
309.14 K, Small sample (50 mg) DSC | 611.94
314.24 K, Small sample (50 mg) DSC | 615.52
319.35 K, Small sample (50 mg) DSC | 618.97
324.45 K, Small sample (50 mg) DSC | 621.42
329.41 K, Small sample (50 mg) DSC | 624.07
334.67 K, Small sample (50 mg) DSC | 626.99
339.78 K, Small sample (50 mg) DSC | 630.16
344.88 K, Small sample (50 mg) DSC | 633.62
349.99 K, Small sample (50 mg) DSC | 636.94
355.08 K, Small sample (50 mg) DSC | 640.33

C[n+]1ccn(Cc2ccccc2)c1.[Cl-] [1-benzyl-3-methyl-1H-imidazolium chloride]
Settings | Glass transition temperature [°C]
[1] | -8.4

molar heat capacity at constant pressure [J/K/mol], [3]
Settings | Crystal | Metastable liquid
261.06 K, Small sample (50 mg) DSC | 238.97 | –
265 K, Small sample (50 mg) DSC | 243.67 | –
270 K, Small sample (50 mg) DSC | 252.99 | –
275 K, Small sample (50 mg) DSC | 261.15 | –
277.11 K, Small sample (50 mg) DSC | – | 329.64
280 K, Small sample (50 mg) DSC | 269.17 | 330.72
285 K, Small sample (50 mg) DSC | 278.83 | 332.88
289.14 K, Small sample (50 mg) DSC | 288.47 | –
290 K, Small sample (50 mg) DSC | – | 335.29
295 K, Small sample (50 mg) DSC | – | 338
298.15 K, Drop calorimetry | – | 338.43
300 K, Small sample (50 mg) DSC | – | 340.37
305 K, Small sample (50 mg) DSC | – | 342.49
310 K, Small sample (50 mg) DSC | – | 344.71
315 K, Small sample (50 mg) DSC | – | 346.85
320 K, Small sample (50 mg) DSC | – | 348.98
325 K, Small sample (50 mg) DSC | – | 351.32
330 K, Small sample (50 mg) DSC | – | 353.53
335 K, Small sample (50 mg) DSC | – | 355.73
340 K, Small sample (50 mg) DSC | – | 358
345 K, Small sample (50 mg) DSC | – | 360.85
350 K, Small sample (50 mg) DSC | – | 363.87
355 K, Small sample (50 mg) DSC | – | 367.01

C[n+]1ccn(Cc2ccccc2)c1.O=S(=O)([O-])C(F)(F)C(F)F
Crystal
Settings | Molar enthalpy of transition or fusion [kcal/mol] | Triple point temperature [K]
[1] | – | 315.4
[2] | 5.64 | –

Settings | Glass transition temperature [°C]
[1] | -44.0

[3]
Settings | molar heat capacity at constant pressure [J/K/mol]
278.51 K, Crystal, Small sample (50 mg) DSC | 393.57
283.62 K, Crystal, Small sample (50 mg) DSC | 402.07
288.72 K, Crystal, Small sample (50 mg) DSC | 411.24
293.83 K, Crystal, Small sample (50 mg) DSC | 423.44
298.15 K, Crystal, Drop calorimetry | 434.75
298.15 K, Metastable liquid, Drop calorimetry | 509.51
334.67 K, Liquid, Small sample (50 mg) DSC | 527.08
339.77 K, Liquid, Small sample (50 mg) DSC | 530.26
344.88 K, Liquid, Small sample (50 mg) DSC | 533.48
349.98 K, Liquid, Small sample (50 mg) DSC | 537.12
355.09 K, Liquid, Small sample (50 mg) DSC | 540.53

Cn1cc[n+](Cc2ccccc2)c1.F[P-](F)(F)(F)(F)F [1-benzyl-3-methylimidazolium hexafluorophosphate]
Crystal
Settings | Molar enthalpy of transition or fusion [kcal/mol] | Triple point temperature [K]
[1] | – | 399.7
[2] | 5.95 | –

Settings | Glass transition temperature [°C]
[1] | -28.3

[3], Crystal
Settings | molar heat capacity at constant pressure [J/K/mol]
258.09 K, Small sample (50 mg) DSC | 321.38
263.2 K, Small sample (50 mg) DSC | 325.69
268.3 K, Small sample (50 mg) DSC | 330.39
273.41 K, Small sample (50 mg) DSC | 335.64
278.51 K, Small sample (50 mg) DSC | 339.82
283.62 K, Small sample (50 mg) DSC | 344.42
288.72 K, Small sample (50 mg) DSC | 348.47
293.83 K, Small sample (50 mg) DSC | 352.84
298.15 K, Drop calorimetry | 360.42
298.93 K, Small sample (50 mg) DSC | 357.16
304.04 K, Small sample (50 mg) DSC | 361.74
309.14 K, Small sample (50 mg) DSC | 366.16
314.25 K, Small sample (50 mg) DSC | 371.17
319.35 K, Small sample (50 mg) DSC | 376.2
324.46 K, Small sample (50 mg) DSC | 380.3
329.56 K, Small sample (50 mg) DSC | 384.8
334.67 K, Small sample (50 mg) DSC | 389.73
339.77 K, Small sample (50 mg) DSC | 394.64
344.88 K, Small sample (50 mg) DSC | 399.86
349.98 K, Small sample (50 mg) DSC | 404.92
355.09 K, Small sample (50 mg) DSC | 410.63
